In assay [1] the target is T1, Ndi1 (Saccharomyces cerevisiae, UniProt P32340).
T1 construct: The mature Ndi1, which lacks a mitochondrial targeting; (His)10; made in house; host or cells: E. coli BL21(DE3)pLysS, plasmid pET16b(NDI1-m)
T1 sequence (P32340 27-513): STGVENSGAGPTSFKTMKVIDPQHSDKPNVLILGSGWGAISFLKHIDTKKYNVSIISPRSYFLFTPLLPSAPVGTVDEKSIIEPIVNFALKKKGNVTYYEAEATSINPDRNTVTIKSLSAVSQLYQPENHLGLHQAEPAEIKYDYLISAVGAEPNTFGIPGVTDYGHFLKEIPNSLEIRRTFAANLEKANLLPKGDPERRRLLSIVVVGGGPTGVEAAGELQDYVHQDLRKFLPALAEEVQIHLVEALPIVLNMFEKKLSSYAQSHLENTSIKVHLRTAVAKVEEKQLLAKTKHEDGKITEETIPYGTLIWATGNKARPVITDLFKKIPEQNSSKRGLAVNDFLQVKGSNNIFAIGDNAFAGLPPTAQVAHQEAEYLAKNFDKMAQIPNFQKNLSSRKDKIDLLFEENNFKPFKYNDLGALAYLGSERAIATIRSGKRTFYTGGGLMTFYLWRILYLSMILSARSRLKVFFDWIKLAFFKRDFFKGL
Also noted: method as in PMID 17200125. To be noted: inhibition of Ndi1; cited from earlier work.

Assay [2] addresses T1, Ndi1. As to the kind of experiment: Inhibition of NADH-ubiquinone-1 oxidoreductase activity of the purified Ndi1. Format: biochemical. The following applies: for IC50: NADH-ubiquinone-1 oxidoreductase activity, purified recombinant Ndi1, 100 µM NADH, pH 6.0, mean ± S.E.M of three independent experiments; for Inhibition mode: inhibition mode for ubiquinone-1, from intersection point in Lineweaver-Burk plots, 100 µM NADH; for Ki: non-linear regression of mixed type inhibition (GraphPad Prism 6), versus ubiquinone-1; for Ki / α (α > 0): mean ± S.D.; for α (α > 0): α of mixed model inhibition fit (αKi = dissociation constant of ternary enzyme-substrate-inhibitor complex). On the procedure:
NADH-ubiquinone oxidoreductase activity was measured as described previously. In brief, the reaction was started by adding 100 µM NADH to the enzyme mixture containing 10 ng/mL Ndi1, 50 mM sodium phosphate (pH 6.0) and 1 mM EDTA, which was pre-incubated with various concentrations of ubiquinone-1 for 1 min. […] The concentrations of inhibitors required to obtain the half-maximal inhibition (IC50) were estimated by non-linear regression dose-response curves. The inhibition mode of each inhibitor for ubiquinone-1 was determined by the intersection point in double-reciprocal plots (Fig. 2B–E). To objectively evaluate the inhibition mode, the data of the inhibition kinetics were fitted to the Eq.
This equation provides two dissociation constants, one for the binary enzyme-inhibitor complex (Ki), the other for the ternary enzyme-substrate-inhibitor complex (αKi).

Where two headings read alike, the source gives them in different places.

For `CCCCCCCCCCCc1cc(=O)c2ccccc2n1O` [AC0-11, 1-hydroxy-2-undecyl-4(1 H) quinolone], the IC50 at Ndi1 [1] was 200 nM.
Consider `CC(/C=C/[C@@]1(C)[C@H](C)CCC(=O)[C@@H]1C)=C\Cc1c(O)c(Cl)c(C)c(C=O)c1O` [Ascochlorin, ascochlorin], for which, at Ndi1 [2], the IC50 amounted to 955 ± 139 nM; the Inhibition mode result is listed as “mixed”; the affinity, expressed as Ki, was 728 ± 191 nM; the “α (α > 0)” value is on record as 2.64±1.87.
Regarding `CCCCCCCCCCCCc1cc(=O)c2ccccc2n1O` [AC0-12, 1-hydroxy-2-dodecyl-4(1 H) quinolone], on Ndi1 [2], the concentration for half-maximal inhibition (IC50) worked out at 115 ± 18 nM, the Inhibition mode result is “mixed”, affinity was put at a Ki of 14 ± 1.9 nM and the “α (α > 0)” value amounted to 13.0±11.7.

A word on the IC50: it is the concentration that inhibits the measured activity by half. As a reminder, the Ki is a measure of affinity in units of concentration, obtained from inhibition or displacement. Read a low Ki as higher affinity.

The record behind these values is paper PMC5799168 (Scientific Reports, 2018).
